This test has as its target T1, Gag-Pol polyprotein [1148-1435] (Human immunodeficiency virus 1, UniProt P04585).
T1 construct: 1148-1435
The experiment in a line: HIV Integrase Strand Transfer Scintillation Proximity Assay (SPA). Here is the method:
Purified recombinant integrase was first combined in a complex with biotinylated donor DNA- streptavidin-coated SPA beads. The complex was preincubated with the test compound, and strand transfer was initiated with a radiolabeled target DNA substrate. After incubation, the incorporated radioactivity was read in a Wallac MicroBeta scintillation plate reader using a counting protocol that corrected for optical cross talk between wells.
(In general: In a scintillation proximity assay essentially only radioactivity close to the scintillant gives light.)

The IC50 is the point on the concentration scale where inhibition reaches its midpoint. A high value points to a need for much substance. `Cc1ccc(S(=O)(=O)Nc2nc(-c3nnc(Cc4ccc(F)cc4)o3)c(O)c3ncccc23)cc1` [N-(7-{5-[(4-fluorophenyl)methyl]-1,3,4-oxadiazol-2-yl}-8-hydroxy-1,6-naphthyridin-5-yl)-4-methylbenzene-1-sulfonamide] had an IC50 (pH 7.2, 37 °C) of 0.042 µM. In other words, the double-digit nanomolar range.

In the case of `NC(=O)c1nc(-c2nnc(Cc3ccc(F)cc3)o2)c(O)c2ncccc12` [7-{5-[(4-fluorophenyl)methyl]-1,3,4-oxadiazol-2-yl}-8-hydroxy-1,6-naphthyridine-5-carboxamide], half-maximal inhibition (IC50) was put at 0.1 µM.
